The target of assay [1] is T1, ERα (Homo sapiens, UniProt P03372).
T1 construct: endogenous in cells; host or cells: T47DKBluc (ATCC CRL-2865)
T1 sequence (P03372 1-595): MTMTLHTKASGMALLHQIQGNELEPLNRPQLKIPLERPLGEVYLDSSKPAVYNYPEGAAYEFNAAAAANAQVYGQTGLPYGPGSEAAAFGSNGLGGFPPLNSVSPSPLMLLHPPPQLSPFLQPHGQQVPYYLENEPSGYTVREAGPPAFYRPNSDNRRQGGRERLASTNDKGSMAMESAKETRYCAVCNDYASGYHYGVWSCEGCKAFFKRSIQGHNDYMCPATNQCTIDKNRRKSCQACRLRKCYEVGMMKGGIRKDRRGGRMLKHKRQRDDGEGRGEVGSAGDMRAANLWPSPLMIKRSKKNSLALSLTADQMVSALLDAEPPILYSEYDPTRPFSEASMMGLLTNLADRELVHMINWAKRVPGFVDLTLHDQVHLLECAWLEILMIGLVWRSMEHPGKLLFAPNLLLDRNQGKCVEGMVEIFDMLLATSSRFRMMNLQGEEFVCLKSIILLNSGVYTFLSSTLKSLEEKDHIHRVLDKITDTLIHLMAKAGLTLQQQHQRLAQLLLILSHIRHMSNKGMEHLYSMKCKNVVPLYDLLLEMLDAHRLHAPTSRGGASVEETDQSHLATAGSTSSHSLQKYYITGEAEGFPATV
Briefly: Estrogen-responsive luciferase reporter transcriptional assay in T47DKBluc cells. In kind it is cell-based. As to conditions: 1 nM E2, 24 h; for IC50: read-out: IC50 against ERα in the luciferase reporter-based transcriptional assay. The protocol: T47DKBluc cells (ATCC® CRL-2865^TM, Manassa, VA, USA) stably transfected with a 3X-ERE–promoter–luciferase reporter gene construct, pGL2.TATA.Inr.luc.neo [38], were used to measure inhibition of ERα-driven transcriptional activity of the luciferase reporter.
This assay was performed as described previously. Briefly, ERα-positive T47DKBluc cells were grown in phenol red-free RPMI 1640 supplemented with 10% CSS for 5 days. The cells were seeded on 96-well plates (2 × 10^4 cells/well). After 24 h, the cells were treated with test compounds in the presence of 1 nM E2. Twenty four hours post-treatment, the cells were lysed with 50 μL of 1× passive lysis buffer (Promega, Madison, WI, USA). Twenty microliters of the lysate from each treatment were transferred onto a white, 96-well, flat-bottomed plate (Corning Life Sciences, Corelle, NY, USA), and the luminescent signal was measured after adding 50 μL of the luciferase assay reagent (Promega, Madison, WI, USA) on a Tecan M200Pro microplate reader (Tecan, Menedorf, Switzerland). Differences in growth were normalised against total protein concentration, which was measured by the bicinchoninic acid (BCA) assay.

Another assay concerns the target T2, ERα LBD (Homo sapiens, UniProt P03372).
T2 construct: ERα LBD (amino acids 302–552) was cloned into the pAN4 AviTag™ Vector; made in house
T2 sequence (P03372 302-552): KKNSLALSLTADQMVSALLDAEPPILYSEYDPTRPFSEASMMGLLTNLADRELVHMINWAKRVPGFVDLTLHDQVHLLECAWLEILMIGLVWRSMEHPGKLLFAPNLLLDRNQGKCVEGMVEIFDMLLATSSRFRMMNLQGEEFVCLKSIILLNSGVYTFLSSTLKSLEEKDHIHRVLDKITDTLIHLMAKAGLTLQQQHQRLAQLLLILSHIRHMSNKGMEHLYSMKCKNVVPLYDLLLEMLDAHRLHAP
Description: Biolayer interferometry (BLI) direct binding assay. As to conditions: biotinylated ERα LBD on streptavidin sensor, 3–100 μM. The protocol: The direct binding of small molecules to the ERα-LBD was quantified by BLI using an Octet RED apparatus (Pall ForteBio, Menlo Park, CA, USA). ERα LBD (amino acids 302–552) was cloned into the pAN4 AviTag™ Vector, (Avidity, Aurora, CO, USA). Biotinylated ERα-LBD was purified as described previously. Biotinylated protein (bERα LBD at 0.05 mg/mL) was bound to the super streptavidin sensors (Pall ForteBio) overnight at 4 °C in assay buffer (20 mM Tris, pH 7.5, 500 mM NaCl, 0.2 mM tris(2-carboxyethyl)phosphine TCEP, 0.02 mM E2, 5% glycerol and 5% dimethyl sulfoxide (DMSO). The compounds were dissolved in the assay buffer in a two-fold dilution series ranging from 3.1–100 μM. In all experiments, a known AF2-interacting peptide, PGC-1α (Elim Biopharmaceuticals, Hayward, CA, USA) was used as a control to confirm the functionality of the bERα LBD.

Assay [2] deals with T1, ERα. Also on record: method as in PMID 25848700. As to conditions: estrogen-sensitive T47DKBluc cells; previously reported; read-out: IC50 of previously-reported template compound; cited from earlier work.
For assay [3], the target named is T3, ERα-LBD and FL-PGC1α peptide (Homo sapiens, UniProt P03372).
T3 construct: it was incubated with GST-tagged ERα-LBD (final concentration, 7.25 nM); purchased Life Technologies PV4544
T3 sequence (P03372 311-547 limits assumed): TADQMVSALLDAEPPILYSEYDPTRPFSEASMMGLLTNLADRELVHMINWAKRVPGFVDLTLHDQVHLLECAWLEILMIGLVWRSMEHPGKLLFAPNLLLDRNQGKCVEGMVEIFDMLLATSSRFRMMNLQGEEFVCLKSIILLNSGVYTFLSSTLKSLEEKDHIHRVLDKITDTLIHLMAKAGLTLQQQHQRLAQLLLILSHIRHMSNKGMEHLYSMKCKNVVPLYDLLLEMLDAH
Briefly: LanthaScreen TR-FRET ER Alpha coactivator displacement assay. As to conditions: three-fold dilution range, dose-dependent. In kind it is biochemical. The protocol:
The LanthaScreen TR-FRET ER Alpha Coactivator Assay kit (PV4544; Life Technologies) was used as per the manufacturer’s instructions and described previously. To assess the binding of VPC-16464 to the AF2 site, it was incubated with GST-tagged ERα-LBD (final concentration, 7.25 nM) in the presence of a fluorescently-labelled co-activator peptide (fluorescein-PGC-1α) at a final concentration of 250 nM, terbium (Tb)-labelled anti-GST antibody (final concentration, 5 nM) and E2 (final concentration, EC80 […]). Cold SRC-2–3 and PGC-1α peptides were used as positive controls for AF2 site-specific binding. TR-FRET was analysed on a Synergy 4 hybrid microplate reader (BioTek, Winooski, VT, USA) with the settings at 340-nm excitation and 495- and 520-nm emission. The emission ratio (520:495) was analysed and plotted.

SMILES strings stand for the structures. Where two headings read alike, the source gives them in different places.

As for `CC(=O)N(/N=C1\Oc2ccccc2C1=O)c1ccccc1Cl` [VPC-16602], the “IC50 against ERα in the luciferase reporter-based transcriptional assay” value at ERα [1] is “Inactive”. Moreover, the “Direct binding to ERα LBD (BLI)” value at ERα LBD was “abolished”.

Regarding `CC(=O)N(/N=C1\Cc2ccccc2C1=O)c1ccccc1Cl` [VPC-16600], the “IC50 against ERα in the luciferase reporter-based transcriptional assay” value on ERα [1] is “Inactive”. For the same molecule, at ERα LBD, the “Direct binding to ERα LBD (BLI)” value was “abolished”.

`CC(=O)N(/N=C1\Sc2ccccc2C1=O)c1ccccc1F` [compound 16487]: the IC50 at ERα [1] turned out to be 4.64 µM.

`CC(=O)N(/N=C1\Sc2c(F)cccc2C1=O)c1ccccc1Cl` [VPC-16607]: the IC50 at ERα [1] amounted to 2.9 µM.

As for `CC(=O)N(/N=C1\Sc2ccccc2C1=O)c1cccc(C)c1` [compound 16457], the half-maximal inhibitory concentration (IC50) at ERα [1] came to 3.78 µM.

Turning to `CCOc1cc(Br)cc(/C=N/NC(=O)c2ccc3c(c2)OCCO3)c1O` [VPC-16230], the IC50 at ERα [2] is 5.8 µM.

For the molecule `CC(=O)N(/N=C1\Sc2ccccc2C1=O)c1ccc(C)c(C)c1` [compound 16484], at ERα [1], the IC50 turned out to be 9.83 µM.

With `CC(=O)N(/N=C1\Sc2ccccc2C1=O)c1ccccc1Cl` [VPC-16464], in assay [3], the “Displacement of FL-PGC1α peptide from ERα-LBD AF2 site (TR-FRET)” value is recorded as “successfully displaced”. Besides, the IC50 at ERα [1] is 2.7 µM. For the same molecule, the “Direct binding to ERα LBD (BLI)” value at ERα LBD is “direct, reversible binding”.

Consider `CC(=O)N(/N=C1\Sc2ccccc2C1=O)c1ccc(C)cc1` [compound 16475], for which the IC50 at ERα [1] amounted to 12.3 µM.

These data come from PMC5855801, “Benzothiophenone Derivatives Targeting Mutant Forms of Estrogen Receptor-α in Hormone-Resistant Breast Cancers” (International Journal of Molecular Sciences, 2018).
